In patent US20220306617A1, “SUBSTITUTED 1,3-PHENYL HETEROARYL DERIVATIVES AND THEIR USE IN THE TREATMENT OF DISEASE” (NOVARTIS AG, priority 2019, published 2022):
pEC50: −log10 of the molar value. Where a name gives a salt, the structure may show the parent alone.

Target: T1, abc isoform of human TMEM16A channel expressed in CHO cells (Homo sapiens, UniProt Q5XXA6, DEL476-501)
T1 construct: expressed in transfected cells; host or cells: CHO cells, doxycycline-inducible expression under Blasticidin/Zeocin selection
T1 sequence (Q5XXA6 with tags, fused parts or gaps isoform Q5XXA6-5 DEL539-564): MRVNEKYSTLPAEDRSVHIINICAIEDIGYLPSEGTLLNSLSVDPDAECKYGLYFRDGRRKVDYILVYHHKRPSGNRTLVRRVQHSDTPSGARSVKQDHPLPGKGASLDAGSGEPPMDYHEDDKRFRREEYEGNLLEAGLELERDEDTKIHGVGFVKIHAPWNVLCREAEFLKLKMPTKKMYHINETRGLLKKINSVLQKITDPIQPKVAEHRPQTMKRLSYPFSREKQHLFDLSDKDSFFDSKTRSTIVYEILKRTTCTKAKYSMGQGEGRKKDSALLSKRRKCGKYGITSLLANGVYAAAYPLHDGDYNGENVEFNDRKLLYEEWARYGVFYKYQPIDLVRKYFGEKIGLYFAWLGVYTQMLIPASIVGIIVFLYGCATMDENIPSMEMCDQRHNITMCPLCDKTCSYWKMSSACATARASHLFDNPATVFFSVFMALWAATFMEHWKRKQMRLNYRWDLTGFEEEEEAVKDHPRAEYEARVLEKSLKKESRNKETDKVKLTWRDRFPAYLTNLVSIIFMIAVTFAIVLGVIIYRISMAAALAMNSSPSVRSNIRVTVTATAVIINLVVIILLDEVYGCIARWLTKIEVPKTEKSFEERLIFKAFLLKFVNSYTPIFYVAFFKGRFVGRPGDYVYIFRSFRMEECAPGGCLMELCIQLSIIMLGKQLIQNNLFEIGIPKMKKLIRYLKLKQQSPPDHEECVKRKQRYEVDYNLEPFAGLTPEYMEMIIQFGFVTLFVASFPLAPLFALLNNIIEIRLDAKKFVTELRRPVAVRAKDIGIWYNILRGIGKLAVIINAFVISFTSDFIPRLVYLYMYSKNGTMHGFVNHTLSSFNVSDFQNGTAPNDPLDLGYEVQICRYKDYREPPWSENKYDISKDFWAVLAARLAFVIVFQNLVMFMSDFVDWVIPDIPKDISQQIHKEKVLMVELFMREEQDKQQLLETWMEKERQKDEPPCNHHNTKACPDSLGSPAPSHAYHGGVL
Experiment: Automated patch clamping (QPatch) assay to measure TMEM16A activity in whole-cell
Type: cell-based
Conditions: for pEC50: CHO cells expressing human TMEM16A (abc), whole-cell automated patch clamp, Hill fit, read-out: TMEM16A QPATCH assay EC50 V3 EC50; for Emax: CHO, maximum current at highest dose relative to reference potentiator at maximal concentration (upper limit) and vehicle (lower limit), read-out: TMEM16A QPATCH assay EC50 V3 Assay Window (% TMEM16A max activation)
Summary of the method: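 CHO cells with doxycycline-induced (1 μg/mL, 18-24 h) human TMEM16A abc isoform; QPatch whole-cell recording, hold −70 mV, step +70 mV 1500 ms, then −90 to +70 mV ramp. Compounds in 0.3% DMSO; EC50 by Hill fit; % max activation relative to vehicle baseline and reference potentiator maximum.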

Structure (SMILES)	pEC50	Emax [%]
CCC(CC)NC(=O)c1cnc(-c2cccc(-c3cc(C(=O)NCc4ccc(F)cc4)n[nH]3)c2)o1 [Example 3.45, 2-(3-(3-((4-Fluorobenzyl)Carbamoyl)-1 H-Pyrazol-5-Yl)Phenyl)-N-(Pentan-3-yl)Oxazole-5-Carboxamide]	6.26	81
CCC(CC)NC(=O)c1cnc(-c2cccc(-c3cc(C(=O)N[C@H](CCSC)C(=O)OC)n[nH]3)c2)o1 [Example 3.46, (R)-Methyl 4-(Methylthio)-2-(5-(3-(5-(Pentan-3-Ylcarbamoyl)Oxazol-2-yl)Phenyl)-1H-Pyrazole-3-Carboxamido)Butanoate]	6.10	80
CCC(CC)NC(=O)c1cnc(-c2cccc(-c3cc(C(=O)NC4CCCC4)n[nH]3)c2)o1 [Example 3.48, 2-(3-(3-(Cyclopentylcarbamoyl)-1 H-Pyrazol-5-Yl)Phenyl)-N-(Pentan-3-yl)Oxazole-5-Carboxamide]	6.92	74
CCC(CC)NC(=O)c1cnc(-c2cccc(-c3cc(C(=O)N[C@@H](C)C4CCCCC4)n[nH]3)c2)o1 [Example 3.49, (S)-2-(3-(3-((1-Cyclohexylethyl)Carbamoyl)-1H-Pyrazol-5-Yl)Phenyl)-N-(Pentan-3-Yl)Oxazole-5-Carboxamide]	6.77	72
CCOC(=O)[C@@H](NC(=O)c1cc(-c2cccc(-c3ncc(C(=O)NC(CC)CC)o3)c2)[nH]n1)C(C)C [Example 3.52, (S)-Ethyl 3-Methyl-2-(5-(3-(5-(Pentan-3-Ylcarbamoyl)Oxazol-2-Yl)Phenyl)-1 H-Pyrazole-3-Carboxamido)Butanoate]	7.52	95
CCC(CC)NC(=O)c1cnc(-c2cccc(-c3cc(C(=O)N[C@H](CC)[C@H]4CC[C@@H](C)O4)n[nH]3)c2)o1 [Example 3.53, 2-(3-(3-(((R)-1-((2R,5R)-5-Methyltetrahydrofuran-2-Yl)Propyl)Carbamoyl)-1 H-Pyrazol-5-Yl)Phenyl)-N-(Pentan-3-Yl)Oxazole-5-Carboxamide]	6.14	109
CCC(CC)NC(=O)c1cnc(-c2cccc(-c3cc(C(=O)NC(C)(C)c4ccccc4)n[nH]3)c2)o1 [Example 3.54, N-(Pentan-3-Yl)-2-(3-(3-((2-Phenylpropan-2-Yl)Carbamoyl)-1H-Pyrazol-5-Yl)Phenyl)Oxazole-5-Carboxamide]	7.22	109
CCOC(=O)[C@@H](NC(=O)c1cnc(-c2cccc(-c3cc(C(=O)NC(C)C(F)(F)F)[nH]n3)c2)o1)C(C)C (stereo partly drawn) [Example 3.55, (2S)-Ethyl 3-Methyl-2-(2-(3-(5-((1,1,1-Trifluoropropan-2-Yl)Carbamoyl)-1H-Pyrazol-3-Yl)Phenyl)Oxazole-5-Carboxamido)Butanoate]	7.70	69
CCC(CC)NC(=O)c1cnc(-c2cccc(-c3cc(C(=O)N[C@@H](CC(C)C)C(=O)NCC(=O)OC(C)(C)C)n[nH]3)c2)o1 [Example 3.57, (S)-Tert-Butyl 2-(4-Methyl-2-(5-(3-(5-(Pentan-3-Ylcarbamoyl)Oxazol-2-Yl)Phenyl)-1H-Pyrazole-3-Carboxamido)Pentanamido)Acetate]	6.19	111
COC(=O)[C@H](CC(C)C)NC(=O)c1cc(-c2cccc(-c3ncc(C(=O)N[C@@H](CC(C)C)C(=O)OC)o3)c2)[nH]n1 [Example 3.58, (S)-Methyl 2-(2-(3-(3-(((S)-1-Methoxy-4-Methyl-1-Oxopentan-2-Yl)Carbamoyl)-1H-Pyrazol-5-Yl)Phenyl)Oxazole-5-Carboxamido)-4-Methylpentanoate]	6.57	77
CCC(CC)NC(=O)c1cnc(-c2cccc(-c3cc(C(=O)N[C@@H](COC(C)(C)C)C(=O)OC(C)(C)C)n[nH]3)c2)o1 [Example 3.61, (S)-Tert-Butyl 3-(Tert-Butoxy)-2-(5-(3-(5-(Pentan-3-Ylcarbamoyl)Oxazol-2-Yl)Phenyl)-1 H-Pyrazole-3-Carboxamido)Propanoate Trifluoroacetate]	6.89	123
CCC(CC)NC(=O)c1cnc(-c2cccc(-c3cc(C(=O)N4CCC(C(=O)OC(C)(C)C)C4)n[nH]3)c2)o1 (stereo not shown) [Example 3.62, Tert-Butyl 1-(5-(3-(5-(Pentan-3-Ylcarbamoyl)Oxazol-2-Yl)Phenyl)-1H-Pyrazole-3-Carbonyl)Pyrrolidine-3-Carboxylate Trifluoroacetate]	6.02	70
CCOC(=O)[C@H](C)NC(=O)c1cc(-c2cccc(-c3ncc(C(=O)NC(CC)CC)o3)c2)[nH]n1 [Example 3.63, (S)-Ethyl 2-(5-(3-(5-(Pentan-3-Ylcarbamoyl)Oxazol-2-Yl)Phenyl)-1H-Pyrazole-3-Carboxamido)Propanoate Trifluoroacetate]	6.07	72

Further compounds by rising pEC50, results first:

pEC50	Emax [%]	Structure (SMILES)
6.03	77	CCC(CC)NC(=O)c1cnc(-c2cccc(-c3cc(C(=O)N4CCC(C)(OC)CC4)n[nH]3)c2)o1 [Example 3.47, 2-(3-(3-(4-Methoxy-4-Methylpiperidine-1-Carbonyl)-1H-Pyrazol-5-yl)Phenyl)-N-(Pentan-3-Yl)Oxazole-5-Carboxamide]
6.46	70	CCC(CC)NC(=O)c1cnc(-c2cccc(-c3cc(C(=O)N[C@@H](Cc4ccccc4)C(=O)OC)n[nH]3)c2)o1 [Example 3.50, (S)-Methyl 2-(5-(3-(5-(Pentan-3-Ylcarbamoyl)Oxazol-2-Yl)Phenyl)-1H-Pyrazole-3-Carboxamido)-3-Phenylpropanoate]
6.64	82	CCC(CC)NC(=O)c1cnc(-c2cccc(-c3cc(C(=O)N[C@H](C)C4CCCCC4)n[nH]3)c2)o1 [Example 3.44, (R)-2-(3-(3-((1-Cyclohexylethyl)Carbamoyl)-1H-Pyrazol-5-Yl)Phenyl)-N-(Pentan-3-Yl)Oxazole-5-Carboxamide]
6.80	150	CCOC(=O)[C@H](CC(C)C)NC(=O)c1cc(-c2cccc(-c3ncc(C(=O)NC(CC)CC)o3)c2)[nH]n1 [Example 3.60, (S)-Ethyl 4-Methyl-2-(5-(3-(5-(Pentan-3-Ylcarbamoyl)Oxazol-2-Yl)Phenyl)-1H-Pyrazole-3-Carboxamido)Pentanoate Trifluoroacetate]
6.96	68	CCC(CC)NC(=O)c1cnc(-c2cccc(-c3cc(C(=O)N[C@H](C)c4ccccc4)n[nH]3)c2)o1 [Example 3.51, (R)-N-(Pentan-3-Yl)-2-(3-(3-((1-Phenylethyl)Carbamoyl)-1H-Pyrazol-5-Yl)Phenyl)Oxazole-5-Carboxamide]
7.05	78	CCC(CC)NC(=O)c1cnc(-c2cccc(-c3cc(C(=O)N[C@H](C)C4CC4)[nH]n3)c2)o1 [Example 3.56, (R)-2-(3-(5-((1-Cyclopropylethyl)Carbamoyl)-1H-Pyrazol-3-Yl)Phenyl)-N-(Pentan-3-Yl)Oxazole-5-Carboxamide]
7.22	106	CCOC(=O)[C@H](NC(=O)c1cc(-c2cccc(-c3ncc(C(=O)NC(CC)CC)o3)c2)[nH]n1)c1ccccc1 [Example 3.59, (R)-Ethyl 2-(5-(3-(5-(Pentan-3-Ylcarbamoyl)Oxazol-2-Yl)Phenyl)-1H-Pyrazole-3-Carboxamido)-2-Phenylacetate Trifluoroacetate]
